Reference: patent publication US7589123B2, “Chemical compounds” (Phytopharm PLC, priority 2006, dated 2009)
Counter-ions that a name gives are not always drawn.

What was measured:
[1] = system: histamine-induced contractions in guinea pig ileum; experiment: Inhibition of histamine-induced contractions in guinea pig ileum (Assay 3); conditions: Cavia porcellus, histamine 1.7 μM, read-out: Inhibition of histamine-induced contraction (%)
Procedure: (§1) Duncan Hartley derived male guinea pigs (325±25 g) were suppressed by CO2 overexposure, the abdominal cavity was exposed and ileal segments were removed. Small strips of ileum were suspended in organ baths containing Krebs solution (composition in g/l: NaCl 6.89, KCl 0.35, CaCl2 0.277, KH2PO4 0.163, MgSO4.7H2O 0.296, NaHCO3 2.1 glucose 1.8). The solution was kept at 32° C. and gassed with O2 (95%)-CO2 (5%) to maintain pH at 7.4. Mechanical activity was recorded by means of isotonic transducers. A resting tension of 1 g was applied to muscle strips before being equilibrated for 1 h, prior to test compound addition. Each preparation was washed twice at 15 min intervals during the equilibration.
(§2) Histamine (1.7 μM; approximately EC60-70) or 5-hydroxytryptamine (5-HT, 2.6 μM; approximately EC60-70) was applied for 5 min and the amplitude of the contraction recorded. The histamine or 5-HT was then washed out until the ileal tissue returned to baseline. Five min after returning to baseline test compound (3 and 30 μM) was applied and the amplitude of the contraction (if any) was recorded. In the continuous presence of test compound, histamine or 5-HT was re-applied and the inhibition of the response was recorded.

[2] = system: 5-HT-induced contractions in guinea pig ileum; experiment: Inhibition of 5-HT-induced contractions in guinea pig ileum (Assay 3); conditions: Cavia porcellus, 5-HT 2.6 μM, read-out: Inhibition of 5-HT-induced contraction (%)
Procedure: as §1, §2

[3] = system: α-smooth muscle actin (α-SMA) mRNA; experiment: Anti-remodelling activity in human lung fibroblasts (HFL1): TGFβ-induced α-SMA mRNA (Assay 4); format: cell-based; conditions: Homo sapiens, HFL1 cells, TGFβ 10 ng/ml, 24 h, read-out: Inhibition of α-SMA mRNA synthesis (%)
Procedure: A human foetal lung fibroblast cell line (HFL1 cells; ATCC accession number CCl-153) was used in this assay. The cells were cultured in medium containing a low level of foetal bovine serum (FBS; 0.1%) for 24 h. After 24 h of culturing the medium was changed to: (a) Control medium (medium containing 10% FBS, 1% phosphate saline and 0.5 mM L-glutamine), (b) Control medium and transforming growth factor beta (TGFβ; 10 ng/ml), (c) Control medium and TGFβ and test compounds (3 and 30 μM). The medium was collected after 24 h and the total mRNA extracted in Tri-reagent. The level of mRNA coding for α-smooth muscle actin (α-SMA) was assessed by real-time reverse transcription-polymerase chain reaction (rtRT-PCR) using primer couples that allow the amplification of α-SMA mRNA. Liver glyceraldehydes 3-phosphate dehydrogenase (GADPH) was used as a reference marker in this experiment. The inhibition of the TGTβ-induced overexpression of α-SMA mRNA by the test compounds was quantified.

[4] = system: IL-1α-induced PGE2 release; experiment: IL-1α-induced PGE2 release in human diploid lung fibroblasts (WI-38) (Assay 5); format: cell-based; conditions: Homo sapiens, WI-38 cells, IL-1α 1 nM, overnight
Procedure: (§3) Human diploid lung fibroblasts (WI-38 cells) were incubated overnight in the presence of IL-1α (1 nM) and test compound (3 and 30 μM) in modified Eagle medium at pH 7.3 containing foetal bovine serum (10%) at 37° C. The supernatant was assayed by radioimmunoassay for released PGE2 and the inhibition of PGE2 by test compound calculated (Table 10). The viability of the cells was then assessed by washing with Roswell Park Memorial Institute medium and adding Alamar Blue reagent before being incubated at 37° C. for 4 h. Living cells take up Alamar Blue and emit fluorescence when excited. Fluorescence intensity was measured using a SpectroFluor Plus plate reader with excitation at 530 nm and emission at 590 nm (Table 10).

WI-38 cells = experiment: Viability of WI-38 cells, Alamar Blue (Assay 5); format: cell-based, human
Procedure: as §3

5-lipoxygenase = target: T1, 5-lipoxygenase (Homo sapiens, UniProt P09917); experiment: 5-lipoxygenase activity (LTB4) in human peripheral blood mononuclear leukocytes (Assay 6); format: cell-based; conditions: human PBMLs, A23187 30 μM, read-out: Inhibition of 5-LO (%)
T1 construct: endogenous in cells; host or cells: human peripheral blood mononuclear leukocytes (PBMLs)
T1 sequence (P09917 1-674): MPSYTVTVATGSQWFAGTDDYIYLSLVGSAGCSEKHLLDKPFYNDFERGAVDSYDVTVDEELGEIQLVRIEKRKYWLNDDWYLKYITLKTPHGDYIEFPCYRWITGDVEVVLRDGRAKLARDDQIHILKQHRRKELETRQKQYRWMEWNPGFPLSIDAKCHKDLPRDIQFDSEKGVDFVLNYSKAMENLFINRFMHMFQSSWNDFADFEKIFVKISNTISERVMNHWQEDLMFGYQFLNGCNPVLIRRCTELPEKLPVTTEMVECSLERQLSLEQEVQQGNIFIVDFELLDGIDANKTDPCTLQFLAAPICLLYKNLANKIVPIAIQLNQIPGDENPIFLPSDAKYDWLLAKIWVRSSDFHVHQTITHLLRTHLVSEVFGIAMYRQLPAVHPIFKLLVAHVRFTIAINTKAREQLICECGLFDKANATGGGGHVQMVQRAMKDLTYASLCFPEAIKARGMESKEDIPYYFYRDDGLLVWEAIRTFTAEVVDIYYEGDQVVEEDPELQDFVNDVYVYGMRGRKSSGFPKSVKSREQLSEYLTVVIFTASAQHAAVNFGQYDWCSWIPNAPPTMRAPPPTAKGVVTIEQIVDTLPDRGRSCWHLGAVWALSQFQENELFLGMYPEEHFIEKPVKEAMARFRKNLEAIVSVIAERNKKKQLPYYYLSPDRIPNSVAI
Procedure: Human peripheral blood mononuclear leukocytes (PBMLs) were isolated using a Ficoll-Paque density gradient. Human peripheral blood mononuclear leukocytes (5×10^6 cells) were incubated with A23187 (30 μM), a divalent cation ionophore used to initiate the biosynthesis of […], and with vehicle (0.1% DMSO) or test compound (3 and 30 μM) in Hank's balanced salt solution (HBBS) buffer, pH 7.4 at 37° C. for 15 min. The PBML solution was neutralized with NaOH (1 N) and centrifuged at 1000 g for 10 min and the supernatant collected. The concentration of leukotriene B4 (LTB4) in the supernatant was measured using an enzyme immunoassay kit (Assay Design Inc.). A reduction in the concentration of LTB4 indicated an inhibition of the enzyme 5-lipoxygenase (Table 11).

TRPV1 receptor = TRPV1 receptor (Rattus norvegicus, UniProt O35433); experiment: TRPV1 modulation in DRG neurones: CGRP release in absence and presence of capsaicin (Assay 2); format: cell-based; set-up: The culture used for this experiment contained sensory neurones, Schwann cells and fibroblasts; endogenous in cells; host or cells: primary rat DRG sensory neurone culture (with Schwann cells and fibroblasts); conditions: 20 min; for inhibition at 3 µM: 3 μM with capsaicin 1 μM; for inhibition at 3 µM / inhibition at 30 µM: −ve: inhibition, +ve: potentiation of capsaicin response, read-out: Effect of test compounds on capsaicin (1 μM)-induced CGRP release (%); for inhibition at 30 µM: 30 μM with capsaicin 1 μM; for Emax at 3 µM: test compound alone 3 μM; for Emax at 3 µM / Emax at 30 µM: rat DRG sensory neurones, read-out: CGRP release (% of capsaicin (1 μM) response); for Emax at 30 µM: test compound alone 30 μM
Sequence of TRPV1 receptor (O35433 whole entry): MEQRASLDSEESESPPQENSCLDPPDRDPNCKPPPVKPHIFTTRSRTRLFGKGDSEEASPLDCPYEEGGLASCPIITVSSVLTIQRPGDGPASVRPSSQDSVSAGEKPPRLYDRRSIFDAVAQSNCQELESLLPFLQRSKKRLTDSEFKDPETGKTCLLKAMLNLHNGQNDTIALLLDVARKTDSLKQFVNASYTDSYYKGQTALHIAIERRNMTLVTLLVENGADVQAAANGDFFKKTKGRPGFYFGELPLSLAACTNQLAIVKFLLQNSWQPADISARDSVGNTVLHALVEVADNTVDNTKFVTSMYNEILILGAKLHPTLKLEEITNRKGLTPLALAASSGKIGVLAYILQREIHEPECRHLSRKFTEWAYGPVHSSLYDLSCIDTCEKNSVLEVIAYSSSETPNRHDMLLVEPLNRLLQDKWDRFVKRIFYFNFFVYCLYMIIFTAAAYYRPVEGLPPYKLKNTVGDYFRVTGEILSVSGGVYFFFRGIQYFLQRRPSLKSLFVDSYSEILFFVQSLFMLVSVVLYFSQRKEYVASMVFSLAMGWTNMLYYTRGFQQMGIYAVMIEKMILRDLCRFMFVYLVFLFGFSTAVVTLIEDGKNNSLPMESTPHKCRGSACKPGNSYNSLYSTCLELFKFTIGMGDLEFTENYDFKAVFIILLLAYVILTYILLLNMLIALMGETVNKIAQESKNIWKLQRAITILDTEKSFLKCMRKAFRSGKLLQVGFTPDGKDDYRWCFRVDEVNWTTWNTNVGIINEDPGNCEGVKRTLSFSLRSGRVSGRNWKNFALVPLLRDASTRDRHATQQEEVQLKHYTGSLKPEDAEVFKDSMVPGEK

Compound	inhibition at 3 µM (5-lipoxygenase) [%]	inhibition at 30 µM (5-lipoxygenase) [%]	inhibition at 3 µM (TRPV1 receptor) [%]	inhibition at 30 µM (TRPV1 receptor) [%]	Emax at 3 µM (TRPV1 receptor) [%]	Emax at 30 µM (TRPV1 receptor) [%]	inhibition at 3 µM [1] [%]	inhibition at 30 µM [1] [%]	inhibition at 3 µM [2] [%]	inhibition at 30 µM [2] [%]	inhibition at 3 µM [3] [%]	inhibition at 30 µM [3] [%]	inhibition at 3 µM [4] [%]	inhibition at 30 µM [4] [%]	Decrease in cell viability (%) (WI-38 cells; 3 μM)	Decrease in cell viability (%) (WI-38 cells; 30 μM)
COc1cc(CCC(=O)CC(=O)c2cccc3ccccc23)ccc1O [Compound 27, 5-(4-Hydroxy-3-methoxylphenyl)-1-(naphthalene-1-yl)-pentane-1,3-dione]	92	98	46	-66	85	162	2	68	1	63	6	79	92	99	4	40
COc1cc(CCC(=O)CC(=O)c2ccccc2)ccc1OCCN [Compound 87, 5-(4-(2-aminoethoxy)-3-methoxyphenyl)-1-phenylpentane-1,3-dione hydrochloride]	-6	19					0	58	15	93			-28	-62		
COc1cc(CCC(=O)CC(=O)c2ccc3ccccc3c2)c(Cl)cc1O [Compound 86, 5-(2-Chloro-4-hydroxy-5-methoxyphenyl)-1-(naphthalene-3-yl)pentane-1,3-dione]	52	98					0	9	4	19			42	100	7	37

The next lines start with results.

inhibition at 3 µM (5-lipoxygenase) [%]	inhibition at 30 µM (5-lipoxygenase) [%]	inhibition at 3 µM (TRPV1 receptor) [%]	inhibition at 30 µM (TRPV1 receptor) [%]	Emax at 3 µM (TRPV1 receptor) [%]	Emax at 30 µM (TRPV1 receptor) [%]	Compound	inhibition at 3 µM [1] [%]	inhibition at 30 µM [1] [%]	inhibition at 3 µM [2] [%]	inhibition at 30 µM [2] [%]	inhibition at 3 µM [3] [%]	inhibition at 30 µM [3] [%]	inhibition at 3 µM [4] [%]	inhibition at 30 µM [4] [%]	Decrease in cell viability (%) (WI-38 cells; 3 μM)	Decrease in cell viability (%) (WI-38 cells; 30 μM)
51	95	-98	-22	55	183	COc1ccc(C(=O)C(C)C(=O)CCc2ccc(O)c(OC)c2)cc1 (stereo not drawn) [Compound 17, 5-(4-Hydroxy-3-methoxyphenyl)-1-(4-methoxyphenyl)-2-methyl-pentane-1,3-dione]	3	29	6	42	-1	31	58	98	−1	4
16	63	18	27	34	34	COc1cc(CCC(=O)CC(=O)c2ccc(O)c(OC)c2)ccc1O [Compound 15, 1,5-Bis(4-hydroxy-3-methoxyphenyl)-pentane-1,3-dione]	0	13	0	54	13	29	49	95	−2	−1
68	98	6	-56	50	150	COc1cc(CCC(=O)CC(=O)c2ccc(Cl)cc2)ccc1O [Compound 21, 1-(4-Chlorophenyl)-5-(4-hydroxy-3-methoxyphenyl)pentane-1,3-dione]	9	68	9	49	6	54	88	99	3	11
74	99	9	4	55	107	COc1cc(CCC(=O)CC(=O)c2ccc(Cl)cc2C)ccc1O [Compound 76, 1-(4-Chloro-2-methylphenyl)-5-(4-hydroxy-3-methoxyphenyl)pentane-1,3-dione]	9	81	26	72	-1	94	99	101	4	26
-1	63					COc1cc(CCC(=O)C(C)(C)C(=O)C2(C)CC2)ccc1O [Compound 70, 5-(4-Hydroxy-3-methoxyphenyl)-2,2-dimethyl-1-(1-methylcyclopropyl)pentane-1,3-dione]	4	29	2	46			42	86	0	5
